Results reported in patent publication US20060154948A1, “Treating allergic and inflammatory conditions” (priority 2005, published 2006).

Test system: seasonal allergic rhinitis
Assay: Double-blinded, randomized clinical trials in seasonal allergic rhinitis patients
Experimental: Efficacy endpoints in all the studies were Total Symptom Score, Total Nasal Symptom Score, Total Non-nasal Symptom Score, and Health Quality of Life (HQOL) analysis in efficacy trials. […] This parameter measures the total symptom relief by the patient after 24 hours before taking the next day dose.

## Clc1ccc2c(c1)CCc1cccnc1C2=C1CCNCC1 [Desloratadine, desloratadine]
5 mg once daily, adult and adolescent seasonal allergic rhinitis patients
  Total symptom scores: significantly reduced
5 mg, seasonal allergic rhinitis patients
  Reduction of nasal symptoms versus placebo: significantly (p<0.01) more effective than placebo
24 hours after dose, over the entire dosage range
  AM NOW total symptom score: Statistically significant (p<0.05) reductions were maintained for the full 24 hour dosing interval
